Measurements from ChEMBL document CHEMBL1151948, “Lactones from Angiopteris caudatiformis” (J Nat Prod, 2009).

Test system: HeLa
Experiment: Cytotoxicity against human HeLa cells after 48 hrs by MTT assay
Type: functional, cell-based

Structure (SMILES): C[C@H](O)[C@H]1OC(=O)C[C@H]1O[C@H]1C=CC(=O)O[C@H]1C [ANGIOPTERLACTONE A]
- IC50: 68.8 µM
